The record followed here is US20240208972A1, “LRRK2 INHIBITORS AND USES THEREOF” (NEURON23, INC., priority 2022, published 2024).

Structures are written as SMILES.

Data set [1] is described as follows: Brain penetration (Kp,uu) in CD-1 mice, with plasma and brain tissue binding by equilibrium dialysis. It is filed as in vivo. The note with it: mouse, brain and plasma (unbound), male CD-1 mice, single IV bolus 1 mg/kg. The procedure: The compounds disclosed herein were tested on CD-1 mice for brain penetration (Kp, uu) according to the following procedures.
Nine male CD-1 mice were administered TEST COMPOUND by single intravenous bolus administration at 1 mg/kg. The vehicle used for IV study was 5% DMSO, 5% solutol, 20% PEG300 and 70% water. The detailed dosing and sampling regimens are described in the following tables.
1.0 mg of test compound was accurately weighed into a glass vial, and slowly added with 104 μL of DMSO and vortexed for 1 min. Then 104 μL of solutol was added and vortexed for 1 min. Then 415 μL of PEG300 was added and vortexed for 1 min. Then 1000 μL of water was added and vortexed for 1 min. Finally, 451 μL of water was added and vortexed for 1 min to get a clear solution.
The body weights were in the range from 28.81 to 31.25 g for males on the first dosing day. All animals received a single intravenous bolus administration of TEST COMPOUND from the tail vein.
Each blood collection (about 0.06 mL per time point) was performed from saphenous vein of each animal into pre-chilled commercial K2-EDTA tubes as anti-coagulant and placed on wet ice until centrifugation.
Plasma samples were then prepared by centrifuging the blood samples at approximately 4° C., 3200×g for 10 minutes. All plasma samples were then quickly frozen over dry ice and kept at −60° C. or lower until LC-MS/MS analysis.
Brain tissue was homogenized using homogenizing buffer (15 mM PBS (pH7.4): MeOH=2:1) at the ratio of 1:9 (1 g tissue with 9 mL buffer, the dilution ratio is 10). The tissue homogenate was kept at −60° C. or lower until LC-MS/MS analysis.
The concentrations of TEST COMPOUND in plasma and brain were determined by using an LC-MS/MS method.
The plasma and brain concentration of TEST COMPOUND in study animals was subjected to a non-compartmental pharmacokinetic analysis by using the Phoenix WinNonlin software program (version 6.3 or above, Pharsight). The linear/log trapezoidal rule was applied in obtaining the PK parameters.
Individual plasma and brain concentration values that were below the lower limit of quantitation (LLOQ) were excluded from the PK parameter calculation. The nominal dose levels and nominal sampling times were used in the calculation of all pharmacokinetic parameters.
Mouse Kp, uu=(% free in mouse brain*concentration in mouse brain)/(% free in mouse plasma*concentration in mouse plasma)
The dialysis apparatus was assembled according to the manufacturer's instruction. Each Cell was filled with 120 μL of spiked plasma sample and dialyzed against equal volume of dialysis buffer (PBS). The assay was performed in duplicate. The dialysis plates were sealed and incubated in an incubator at 37° C. with 5% CO2 and rotated at 100 rpm for 6 hours. At the end of incubation, the seals were removed and 50 μL of samples from both buffer and plasma chambers were transferred to a 96-well plate.
All calculations were carried out using Microsoft Excel. The concentrations of test compound and control compound in the buffer and plasma chambers were determined from peak area ratios (PAR) of analyte to internal standard. Protein binding (% unbound and % bound) and recovery (% recovery) of test and control compounds was calculated as follows:
• 1. Thawing of the frozen brain (stored at −80° C.) • Frozen brain tissue was thawed at room temperature in a bath. Only brain tissue was used that was thawed no more than once. • 2. Preparation of brain tissue homogenate • Brain tissue homogenate was prepared by diluting one quantity (g) of the whole brain tissue with three volumes (mL) of buffer (PBS, pH 7.4) and homogenizing the mixture using a tissue homogenizer. Brain tissue homogenate was frozen at −80° C. for later use/comparison. • 3. Preparation of working solutions • The working solutions of test compound and the control compound propranolol were prepared in dimethyl sulfoxide (DMSO) at the concentration of 200 μM. […]

The subject of data set [2] is Caco-2 cells. Briefly: Caco-2 bidirectional permeability. The note with it: for Caco-2 A2B (10^−6 cm/s): A to B; for Caco-2 A2B (10^−6 cm/s) / Caco-2 B2A (10^−6 cm/s): HBSS pH 7.4, 2 hours; for Caco-2 B2A (10^−6 cm/s): B to A; for Caco-2 ER: Efflux Ratio=Papp (BA)/Papp (AB). It counts as in vitro ADME. Summed up: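 Caco-2 monolayers grown 21–28 days on PET inserts were run in duplicate in HBSS with 10 mM HEPES, pH 7.4. Compound was tested in both directions at […] for 2 h at 37 °C and quantified by LC-MS/MS. Papp, % recovery and efflux ratio (B-A/A-B) were calculated, with lucifer yellow checking monolayer integrity.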

The compound `Cc1n[nH]c2c1N=C(c1c(F)cccc1F)Nc1cnc(-c3ccn(C(F)F)n3)cc1-2` [Example 12, 13-[1-(difluoromethyl)pyrazol-3-yl]-8-(2,6-difluorophenyl)-5-methyl-3,4,7,9,12-pentazatricyclo[8.4.0.02,6]tetradeca-1(10),2(6),4,7,11,13-hexaene] had a Kp uu in data set [1] below 0.2. Further, in data set [2], the “Caco-2 A2B (10^−6 cm/s)” value was “H (H (High permeability)”: A2B (B2A)>5)”, the “Caco-2 B2A (10^−6 cm/s)” value is on record as “H (H (High permeability)”: A2B (B2A)>5)” and the “Caco-2 ER” value was “N (N (Non-substrate)”: ER<2.5)”.

`Cc1n[nH]c2c1N=C(c1c(F)cccc1F)Nc1ccc(N3CCO[C@@H](C)C3)cc1-2` [Example 26, (S)-4-(5-(2,6-difluorophenyl)-3-methyl-1,6-dihydrobenzo[d]pyrazolo[3,4-f][1,3]diazepin-9-yl)-2-methylmorpholine] gave a Kp uu in data set [1] of 0.2 to 0.4. For the same compound, in data set [2], the “Caco-2 A2B (10^−6 cm/s)” value is “H (H (High permeability)”: A2B (B2A)>5)”, the “Caco-2 B2A (10^−6 cm/s)” value is “H (H (High permeability)”: A2B (B2A)>5)” and the “Caco-2 ER” value is listed as “N (N (Non-substrate)”: ER<2.5)”.

As for `Cc1n[nH]c2c1N=C(c1c(F)cccc1F)Nc1ccc(-c3cnn(C(F)F)c3)cc1-2` [Example 13, 9-[1-(difluoromethyl)pyrazol-4-yl]-5-(2,6-difluorophenyl)-3-methyl-1,6-dihydropyrazolo[4,3-d][1,3]benzodiazepine], the Kp uu in data set [1] is above 0.4. Besides, in data set [2], the “Caco-2 A2B (10^−6 cm/s)” value is recorded as “H (H (High permeability)”: A2B (B2A)>5)”, the “Caco-2 B2A (10^−6 cm/s)” value is listed as “H (H (High permeability)”: A2B (B2A)>5)” and the “Caco-2 ER” value is on record as “N (N (Non-substrate)”: ER<2.5)”.

`Cc1n[nH]c2c1N=C(c1c(F)cccc1F)Nc1c-2cc(N2CCN(CCF)C[C@H]2C)nc1C` (single isomer, unassigned) [Example 18]: in data set [1], the Kp uu is above 0.4. In data set [2], the “Caco-2 A2B (10^−6 cm/s)” value is listed as “H (H (High permeability)”: A2B (B2A)>5)”, the “Caco-2 B2A (10^−6 cm/s)” value was “H (H (High permeability)”: A2B (B2A)>5)” and the “Caco-2 ER” value was “N (N (Non-substrate)”: ER<2.5)”.

For the compound `Cc1n[nH]c2c1N=C(c1c(F)cccc1F)Nc1cc(F)c(N3CCOCC3)cc1-2` [Example 28, 4-[5-(2,6-difluorophenyl)-8-fluoro-3-methyl-1,6-dihydropyrazolo[4,3-d][1,3]benzodiazepine-9-yl]morpholine], the Kp uu in data set [1] is above 0.4. For the same compound, in data set [2], the “Caco-2 A2B (10^−6 cm/s)” value is listed as “H (H (High permeability)”: A2B (B2A)>5)”, the “Caco-2 B2A (10^−6 cm/s)” value is “H (H (High permeability)”: A2B (B2A)>5)” and the “Caco-2 ER” value was “N (N (Non-substrate)”: ER<2.5)”.

In data set [1], `Cc1n[nH]c2c1N=C(c1c(F)cccc1F)Nc1c-2cc(N2CCN(CC(F)(F)F)CC2)nc1C` [Example 23, 5-(2,6-difluorophenyl)-3,7-dimethyl-9-(4-(2,2,2-trifluoroethyl)piperazin-1-yl)-1,6-dihydropyrazolo[4,3-d]pyrido[4,3-f][1,3]diazepine] yielded a Kp uu above 0.4. Also, in data set [2], the “Caco-2 A2B (10^−6 cm/s)” value was “H (H (High permeability)”: A2B (B2A)>5)”, the “Caco-2 B2A (10^−6 cm/s)” value is reported as “H (H (High permeability)”: A2B (B2A)>5)” and the “Caco-2 ER” value is “N (N (Non-substrate)”: ER<2.5)”.

With `Cn1nccc1-c1cc2c(cn1)NC(c1c(F)cccc1F)=Nc1c(Cl)n[nH]c1-2` [Example 59, 3-chloro-5-(2,6-difluorophenyl)-9-(1-methyl-1H-pyrazol-5-yl)-1,6-dihydropyrazolo[4,3-d]pyrido[4,3-f][1,3]diazepine], the Kp uu in data set [1] is below 0.2. In data set [2], the “Caco-2 A2B (10^−6 cm/s)” value is on record as “H (H (High permeability)”: A2B (B2A)>5)”, the “Caco-2 B2A (10^−6 cm/s)” value is “H (H (High permeability)”: A2B (B2A)>5)” and the “Caco-2 ER” value is “N (N (Non-substrate)”: ER<2.5)”.

The compound `Cc1n[nH]c2c1N=C(c1c(F)cccc1F)Nc1ccc(N3CCO[C@H](C)C3)cc1-2` [Example 7, (R)-4-(5-(2,6-difluorophenyl)-3-methyl-1,6-dihydrobenzo[d]pyrazolo[3,4-f][1,3]diazepin-9-yl)-2-methylmorpholine] displayed a Kp uu in data set [1] of 0.2 to 0.4. Also, in data set [2], the “Caco-2 A2B (10^−6 cm/s)” value is “H (H (High permeability)”: A2B (B2A)>5)”, the “Caco-2 B2A (10^−6 cm/s)” value was “H (H (High permeability)”: A2B (B2A)>5)” and the “Caco-2 ER” value is “N (N (Non-substrate)”: ER<2.5)”.

Take `Cc1n[nH]c2c1N=C(c1c(F)cccc1F)Nc1cnc(N3CCO[C@@H](C(F)(F)F)C3)cc1-2` [Example 55, (2R)-4-[8-(2,6-difluorophenyl)-5-methyl-3,4,7,9,12-pentazatricyclo[8.4.0.02,6]tetradeca-1(10),2(6),4,7,11,13-hexaen-13-yl]-2-(trifluoromethyl)morpholine]: the Kp uu in data set [1] is below 0.2. In data set [2], the “Caco-2 A2B (10^−6 cm/s)” value is given as “H (H (High permeability)”: A2B (B2A)>5)”, the “Caco-2 B2A (10^−6 cm/s)” value is “H (H (High permeability)”: A2B (B2A)>5)” and the “Caco-2 ER” value was “N (N (Non-substrate)”: ER<2.5)”.

`Cc1n[nH]c2c1N=C(c1c(F)cccc1F)Nc1c-2cc(N2CC3(CCOCC3)C2)nc1C` [Example 47, 2-[8-(2,6-difluorophenyl)-5,11-dimethyl-3,4,7,9,12-pentazatricyclo[8.4.0.02,6]tetradeca-1(10),2(6),4,7,11,13-hexaen-13-yl]-7-oxa-2-azaspiro[3.5]nonane] gave a Kp uu in data set [1] of 0.2 to 0.4. In data set [2], the “Caco-2 A2B (10^−6 cm/s)” value is “M (M (Moderate permeability)”: 1≤A2B (B2A)≤5)”, the “Caco-2 B2A (10^−6 cm/s)” value was “H (H (High permeability)”: A2B (B2A)>5)” and the “Caco-2 ER” value is “L (L (Likely)”: ER>2.5)”.

`Cc1n[nH]c2c1N=C(c1c(F)cc(F)cc1F)Nc1ccc(N3CCOCC3)cc1-2` [Example 27, 4-[3-methyl-5-(2,4,6-trifluorophenyl)-1,6-dihydropyrazolo[4,3-d][1,3]benzodiazepin-9-yl]morpholine] yielded a Kp uu in data set [1] of 0.2 to 0.4. In addition, in data set [2], the “Caco-2 A2B (10^−6 cm/s)” value was “H (H (High permeability)”: A2B (B2A)>5)”, the “Caco-2 B2A (10^−6 cm/s)” value is reported as “H (H (High permeability)”: A2B (B2A)>5)” and the “Caco-2 ER” value was “N (N (Non-substrate)”: ER<2.5)”.

Take `[2H]C([2H])([2H])c1n[nH]c2c1N=C(c1c(F)cccc1F)Nc1ccc(N3CCO[C@@H](C)C3)cc1-2` [Example 34, (2S)-4-[5-(2,6-difluorophenyl)-3-(trideuteriomethyl)-1,6-dihydropyrazolo[4,3-d][1,3]benzodiazepin-9-yl]-2-methyl-morpholine]: the Kp uu in data set [1] lay within 0.2 to 0.4. Also, in data set [2], the “Caco-2 A2B (10^−6 cm/s)” value is listed as “H (H (High permeability)”: A2B (B2A)>5)”, the “Caco-2 B2A (10^−6 cm/s)” value is “H (H (High permeability)”: A2B (B2A)>5)” and the “Caco-2 ER” value is “N (N (Non-substrate)”: ER<2.5)”.

Take `[2H]C1([2H])OC([2H])([2H])C([2H])([2H])N(c2ccc3c(c2)-c2[nH]nc(C)c2N=C(c2c(F)cccc2F)N3)C1([2H])[2H]` [Example 22, 2,2,3,3,5,5,6,6-octadeuterio-4-[5-(2,6-difluorophenyl)-3-methyl-1,6-dihydropyrazolo[4,3-d][1,3]benzodiazepin-9-yl]morpholine]: the Kp uu in data set [1] is below 0.2. In addition, in data set [2], the “Caco-2 A2B (10^−6 cm/s)” value was “H (H (High permeability)”: A2B (B2A)>5)”, the “Caco-2 B2A (10^−6 cm/s)” value is “H (H (High permeability)”: A2B (B2A)>5)” and the “Caco-2 ER” value is recorded as “N (N (Non-substrate)”: ER<2.5)”.
